The values that follow come from ChEMBL document CHEMBL1201862, “PubChem BioAssay data set” (2004).

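Interpolation was linear, between the two tested concentrations surrounding the appropriate level; five concentrations were tested over 48 hours in 96-well plates. GI50 marks 50% less growth.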 Activity calls are given as the source filed them. Rule as the data show it: active = GI50 up to about 1.1 µM and inactive = higher.

Some test systems named below: A549; BT-549; CAKI-1; COLO 205; HCT-15; MDA-MB-231; MDA-N; MOLT-4; NCI-H226; NCI-H23; NCI-H460; NCI-H522; NCI/ADR-RES; OVCAR-4; OVCAR-8; SF-295; SNB-19; SNB-75; UACC-257; UACC-62.
Test in all cases: NCI-60 cell line screen, 48 h

With `Cc1cc(C)c(S(=O)(=O)N(CCCN)OCCCON(CCCN)S(=O)(=O)c2c(C)cc(C)cc2C)c(C)c1`, the GI50 is 1.77 µM (inactive) with A549; 3.1 µM (inactive) in the assay on BT-549; 14.2 µM (inactive) with CAKI-1; 1.78 µM (inactive) in the assay on COLO 205; 18.2 µM with HCT-15; 1.77 µM (inactive) with MDA-MB-231. Moreover, the GI50 was 1.78 µM (inactive) in the assay on MDA-N; 2.03 µM (inactive) in the assay with MOLT-4; 2.2 µM (inactive) with NCI-H226; 2.18 µM (inactive) with NCI-H23; 1.67 µM (inactive) with NCI-H460; 1.47 µM (inactive) in the assay on NCI-H522. Also, the GI50 is 18.9 µM (inactive) in the assay on NCI/ADR-RES; 2.29 µM (inactive) with OVCAR-4; 3.68 µM (inactive) in the assay on OVCAR-8; 7.66 µM (inactive) in the assay on SF-295; 1.75 µM (inactive) with SNB-19; 1.86 µM (inactive) in the assay on SNB-75. For the same compound, the GI50 in the assay on UACC-257 is 1.82 µM (inactive); in the assay on UACC-62, 2.52 µM (inactive).

In the case of `O=C1CCc2cc([N+](=O)[O-])ccc2O1`, the GI50 in the assay on A549 was > 100 µM (inactive); in the assay with BT-549, > 100 µM (inactive); with CAKI-1, > 100 µM (inactive); in the assay with COLO 205 it was > 100 µM (inactive); with HCT-15 it was over 100 µM; in the assay on MDA-MB-231, > 100 µM (inactive). The GI50 in the assay with MDA-N, with MOLT-4, in the assay with NCI-H226, in the assay with NCI-H23, in the assay with NCI-H460 and with NCI-H522 was > 100 µM (inactive) throughout. Further, the GI50 in the assay with NCI/ADR-RES, in the assay on OVCAR-4, with OVCAR-8, in the assay on SF-295, with SNB-19 and in the assay with SNB-75 was > 100 µM (inactive) each time. In addition, the GI50 in the assay on UACC-257 and in the assay with UACC-62 was > 100 µM (inactive) in each case.

Regarding `O=Cc1c(-c2ccccc2)nc2ccccc2c1O`, the GI50 in the assay with A549 was 54 µM (inactive); in the assay on BT-549, > 100 µM (inactive); in the assay on CAKI-1, 43.4 µM (inactive); with COLO 205 it was 26.7 µM (inactive); in the assay with HCT-15, 65.2 µM; with MDA-MB-231 it was 64.6 µM (inactive). The GI50 is 15.6 µM (inactive) in the assay with MDA-N; 55.7 µM (inactive) in the assay with MOLT-4; > 100 µM (inactive) in the assay on NCI-H226; 75.7 µM (inactive) with NCI-H23; 48.2 µM (inactive) in the assay with NCI-H460; 50.8 µM (inactive) in the assay on NCI-H522. Further, the GI50 in the assay with NCI/ADR-RES is 52.1 µM (inactive); in the assay with OVCAR-4, > 100 µM (inactive); in the assay on OVCAR-8 it was 97.5 µM (inactive); in the assay on SF-295, 97.9 µM (inactive); in the assay on SNB-19, > 100 µM (inactive); in the assay with SNB-75, 34.5 µM (inactive). The GI50 with UACC-257 is 72.8 µM (inactive); with UACC-62, 55.8 µM (inactive).

Regarding `CN[C@H]1CC[C@]23C[C@]24CC[C@]2(C)[C@@H]([C@H](C)N(C)C)CC[C@@]2(C)[C@@H]4CC[C@H]3C1(C)C`, the GI50 in the assay on A549 was 17.4 µM (inactive); in the assay on BT-549, 12.7 µM (inactive); in the assay on CAKI-1, 21.9 µM (inactive); with COLO 205, 12.1 µM (inactive); with HCT-15, 10.7 µM; in the assay on MDA-MB-231, 21.1 µM (inactive). For the same compound, the GI50 in the assay on MDA-N was 13.9 µM (inactive); in the assay with MOLT-4 it was 16.5 µM (inactive); with NCI-H226, 16.5 µM (inactive); in the assay with NCI-H23 it was 15.7 µM (inactive); with NCI-H460, 18.2 µM (inactive); with NCI-H522, 17.2 µM (inactive). The GI50 with NCI/ADR-RES was 18.5 µM (inactive); in the assay on OVCAR-4, 17.7 µM (inactive); in the assay with OVCAR-8, 17.3 µM (inactive); with SF-295 it was 14.6 µM (inactive); in the assay with SNB-19 it was 16.7 µM (inactive); with SNB-75 it was 14.4 µM (inactive). Further, the GI50 in the assay on UACC-257 is 15.1 µM (inactive); in the assay on UACC-62, 15.8 µM (inactive).

As for `CC(=O)Oc1c(OC(C)C)c(C)c(O[Si](C(C)C)(C(C)C)C(C)C)c2[nH]c3ccccc3c12`, the GI50 is > 82.2 µM (inactive) in the assay on A549; > 100 µM (inactive) in the assay with BT-549; 67.1 µM (inactive) with CAKI-1; > 100 µM (inactive) with COLO 205; over 75.7 µM in the assay on HCT-15; > 88.3 µM (inactive) with MDA-MB-231. Also, the GI50 was > 100 µM (inactive) in the assay on MDA-N; 12 µM (inactive) in the assay on MOLT-4; > 100 µM (inactive) in the assay with NCI-H226; 33.6 µM (inactive) in the assay on NCI-H23; > 100 µM (inactive) in the assay with NCI-H460; 34.6 µM (inactive) with NCI-H522. Besides, the GI50 in the assay on NCI/ADR-RES was > 100 µM (inactive); with OVCAR-4, 57.8 µM (inactive); with OVCAR-8 it was > 100 µM (inactive); with SF-295, 76.2 µM (inactive); with SNB-19 it was > 100 µM (inactive); in the assay on SNB-75, > 100 µM (inactive). The values for the GI50 with UACC-257 and in the assay with UACC-62 were > 62.4 µM (inactive) and > 100 µM (inactive), respectively.

In the case of `Cc1cn(C2CC(N=[N+]=[N-])C(CO)O2)c(=O)n(CCCCBr)c1=O` (stereo not given), the GI50 in the assay on A549 was > 100 µM (inactive); in the assay on BT-549, > 100 µM (inactive); in the assay on CAKI-1, > 100 µM (inactive); in the assay with COLO 205, > 100 µM (inactive); with HCT-15, over 100 µM; with MDA-MB-231, 35.6 µM (inactive). Further, the GI50 in the assay with MDA-N was > 100 µM (inactive); with MOLT-4, 95.1 µM (inactive); with NCI-H226, > 100 µM (inactive); in the assay with NCI-H23, 96.8 µM (inactive); in the assay with NCI-H460 it was > 100 µM (inactive); in the assay on NCI-H522, > 100 µM (inactive). The GI50 was 63.8 µM (inactive) with NCI/ADR-RES; > 100 µM (inactive) in the assay with OVCAR-4; > 100 µM (inactive) in the assay with OVCAR-8; > 100 µM (inactive) in the assay on SF-295; > 100 µM (inactive) in the assay with SNB-19; 63.2 µM (inactive) in the assay on SNB-75. Also, the GI50 in the assay on UACC-257 and with UACC-62 was > 100 µM (inactive) in each case.

On to `COc1cccc2c3ccccc3c3nc[nH]c3c12`, for which the GI50 is 36.2 µM (inactive) in the assay on A549; > 71.1 µM (inactive) with BT-549; 48.4 µM (inactive) in the assay with CAKI-1; 17.9 µM (inactive) in the assay with COLO 205; 27.7 µM in the assay with HCT-15; 25.4 µM (inactive) with MDA-MB-231. Moreover, the GI50 in the assay on MDA-N is 32.1 µM (inactive); in the assay on MOLT-4, 9.08 µM (inactive); in the assay on NCI-H226, 37.8 µM (inactive); in the assay on NCI-H23 it was > 100 µM (inactive); with NCI-H460 it was 23.7 µM (inactive); in the assay on NCI-H522 it was 24.5 µM (inactive). In addition, the GI50 is 46.3 µM (inactive) with NCI/ADR-RES; > 88.7 µM (inactive) in the assay with OVCAR-4; > 100 µM (inactive) with OVCAR-8; 16 µM (inactive) with SF-295; > 46.8 µM (inactive) with SNB-19; > 47.8 µM (inactive) in the assay with SNB-75. In addition, the GI50 was 23.6 µM (inactive) in the assay with UACC-257 and 22.8 µM (inactive) with UACC-62.

With `Cc1nc(Nc2ccccc2Cl)sc1C(=O)CC(=O)C(N)=O`, the GI50 is 41.8 µM (inactive) in the assay with A549; > 100 µM (inactive) in the assay with BT-549; > 100 µM (inactive) with CAKI-1; 21.2 µM (inactive) in the assay with COLO 205; 33.7 µM with HCT-15; 57.4 µM (inactive) in the assay with MDA-MB-231. The GI50 in the assay with MDA-N was 19.4 µM (inactive); in the assay with MOLT-4, 26.4 µM (inactive); with NCI-H226 it was 22.7 µM (inactive); in the assay on NCI-H23, 28.2 µM (inactive); in the assay with NCI-H460, 32.6 µM (inactive); in the assay on NCI-H522 it was 1.96 µM (inactive). In addition, the GI50 in the assay with NCI/ADR-RES is 31.3 µM (inactive); in the assay on OVCAR-4, > 100 µM (inactive); in the assay on OVCAR-8 it was 54.7 µM (inactive); in the assay on SF-295 it was 34.8 µM (inactive); with SNB-19, 41 µM (inactive); in the assay on SNB-75 it was 6.87 µM (inactive). The GI50 in the assay with UACC-257 is > 100 µM (inactive); in the assay with UACC-62 it was 35.1 µM (inactive).

For `CCOC(=O)CCN1C(=O)c2ccc(NC(=O)C(=O)O)cc2S1(=O)=O`, the GI50 in the assay on A549 was > 100 µM (inactive); with BT-549, > 100 µM (inactive); with CAKI-1, > 100 µM (inactive); in the assay with COLO 205, > 100 µM (inactive); in the assay on HCT-15, over 100 µM; in the assay with MDA-MB-231, > 100 µM (inactive). The GI50 in the assay on MDA-N, in the assay on MOLT-4, with NCI-H226, with NCI-H23, in the assay on NCI-H460 and in the assay with NCI-H522 was > 100 µM (inactive) throughout. Moreover, the GI50 in the assay with NCI/ADR-RES, in the assay with OVCAR-4, in the assay with OVCAR-8, in the assay on SF-295, in the assay on SNB-19 and in the assay on SNB-75 was > 100 µM (inactive) throughout. For the same compound, the GI50 in the assay on UACC-257 and in the assay on UACC-62 was > 100 µM (inactive) throughout.

Turning to `CC(=O)O[C@H]1C(=O)[C@@]2(C)C(C(OC(=O)c3ccccc3)[C@]3(O)C[C@H](OC(=O)C(OC(=O)CCCC(=O)NCCCN(C)C)C(NC(=O)c4ccccc4)c4ccccc4)C(C)=C1C3(C)C)C1(OC(C)=O)COC1C[C@@H]2O` (stereo not given in full), the GI50 was < 0.01 µM (active) in the assay on A549; 0.0101 µM (active) in the assay with BT-549; 0.859 µM (active) in the assay on CAKI-1; < 0.01 µM (active) in the assay with COLO 205; 0.406 µM with HCT-15; < 0.0125 µM (active) with MDA-MB-231. Besides, the GI50 in the assay with MDA-N is < 0.01 µM (active); in the assay with MOLT-4, < 0.01 µM (active); in the assay with NCI-H226, 0.495 µM (active); in the assay on NCI-H23, < 0.01 µM (active); with NCI-H460, < 0.01 µM (active); in the assay on NCI-H522, < 0.01 µM (active). The GI50 is 5.02 µM (inactive) in the assay on NCI/ADR-RES; 8.71 µM (inactive) in the assay with OVCAR-4; < 0.01 µM (active) in the assay on OVCAR-8; 0.02 µM (active) in the assay with SF-295; 0.0152 µM (active) in the assay on SNB-19; < 0.01 µM (active) in the assay with SNB-75. The values for the GI50 with UACC-257 and in the assay on UACC-62 were 0.0143 µM (active) and < 0.01 µM (active), respectively.
